Each block holds one compound with its values, some of them ahead of it.
How the values were obtained:
[1] = test system: GdG-3 (RNA, riboswitch) GGACAUACAAUCGCGUGGAUAUGGCACGCAAGAUCCCGCCGGGCACCGUAAAUGUCCGACUAUGUCC; assay: ITC; conditions: 100 mM KCl, 20 mM MgCl2; 50 mM K+-Hepes pH 7.5, 30 °C; apparent
[2] = test system: Wild-type G-box B. subtilis xpt–pbuX (xpt) (RNA, riboswitch) GGACAUAUAAUCGCGUGGAUAUGGCACGCAAGUUUCUACCGGGCACCGUAAAUGUCCGACUAUGUCC; assay: ITC; conditions: 100 mM KCl, 20 mM MgCl2; 50 mM K+-Hepes pH 7.5, 30 °C; apparent

- KD,G [1]: 1200 ± 700 µM
Structure (SMILES): Nc1nc2[nH]cnc2c(=O)[nH]1

- KD,rG [1]: 121 ± 8 µM
Structure (SMILES): Nc1nc2c(ncn2[C@@H]2O[C@H](CO)[C@@H](O)[C@H]2O)c(=O)[nH]1

- KD,dG [2]: 12 ± 1 µM
- KD,dG [1]: 39 ± 1 µM
Structure (SMILES): Nc1nc2c(ncn2[C@H]2C[C@H](O)[C@@H](CO)O2)c(=O)[nH]1

From paper PMC2997738 (2008)
